From US11827611B2, “Ubiquitin-specific peptidase 24 inhibitor, medicinal composition including the same and method of delaying or reversing multidrug resistance in cancers using the same” (NATIONAL CHENG KUNG UNIVERSITY, priority 2020, dated 2023)
Where a name gives a salt, the structure may show the parent alone. Read-outs that look alike come from different tables or passages of the source.

Columns and labels:
[1] = system: USP24 substrates, Bax and BRD7, in A549 cells; test: protein levels of USP24 substrates in A549 cells treated with USP24 inhibitor candidates (Western blotting); assay type: cell-based, human; conditions: for levels of Bax, BRD7 / level of p300: A549 cells; for levels of Bax, BRD7: FIG. 4B; for level of p300: FIG. 4D
Text: FIG. 4B illustrates a bar diagram showing the relative protein levels of USP24 substrates, Bax and BRD7, in A549 cells treated with various USP24 inhibitor candidates according to several embodiments of the present invention.
FIG. 4D illustrates the result of Western blotting assay with anti-Ubiquitin antibodies for evaluating the ubiquitination of p300 in A549 cells with or without USP24 overexpression or USP24 inhibitor according to an embodiment of the present invention.
Human lung adenocarcinoma epithelial cell line A549 and other lung cancer cell lines were cultured with RPMI 1640 medium (Invitrogen) containing 10% fetal bovine serum (FBS), 100 μg/ml streptomycin and 100 U/ml penicillin G sodium. All cells were incubated at 37° C. with 5% CO2. For transfecting plasmid, Polyjet (SignaGen) was used according to manufacturer's instructions.

T24 cells [2] = test: sphere formation of T24 cells with or without USP24 inhibitor; assay type: cell-based, human
Text: FIGS. 41(a) and 41(b) illustrate the results of the sphere formation of T24 cells with or without USP24 inhibitor treatment according to an embodiment of the present invention.

TMZR = test: cytotoxicity of TMZR cells treated with or without USP24 inhibitor; assay type: cell-based; conditions: FIG. 4F(a)
Text: (§1) FIG. 4E(a) to 4F(c) illustrate the results of the cytotoxicity of T24 cells [FIGS. 4E(a) and 4E(b)], TMZR [FIG. 4F(a)], Hone-1 CPT-R [FIG. 4F(b)] and HCT116OX5 [FIG. 4F(c)] treated with or without USP24 inhibitor according to several embodiments of the present invention.

P-gp = test: Western blotting of the level and protein stability of P-gp in T24 treated with USP24 inhibitor; assay type: cell-based, human; conditions: T24 cells
Text: FIG. 4G(a) to 4H(b) illustrate the results of Western blotting assay of the level and protein stability of P-gp in T24 treated with USP24 inhibitor according to an embodiment of the present invention.

USP7 = USP7 (Homo sapiens, UniProt Q93009); test: catalytic activity of USP7; assay type: biochemical; conditions: data not shown
USP9x = USP9x (Homo sapiens, UniProt Q93008); test: catalytic activity of USP9x; assay type: biochemical; conditions: data not shown
Hone-1 CPT-R = test: cytotoxicity of Hone-1 CPT-R cells treated with or without USP24 inhibitor; assay type: cell-based; conditions: FIG. 4F(b)
Text: as §1

T24 = test: tumor size of T24 injected into SCID mice treated with taxol and USP24 inhibitor; assay type: in vivo; conditions: combined with taxol
Text: (§2) FIGS. 4K(a) and 4K(b) illustrate the results of the tumor size of T24 injected into SCID mice treated with taxol and USP24 inhibitor in the indicated time according to an embodiment of the present invention.
The experiments related with animals were approved by the Institutional Animal Care and Use Committee (IACUC) at National Cheng Kung University (NCKU). These transgenic mice were generated in National Laboratory Animal Center (NLAC, Taiwan, Tainan). After breeding, two-month-old transgenic mice were used to study lung cancer development. Caging was provided suitable space and accommodates appropriate population densities that allow animals' sufficient freedom of movement. To provide amounts of food that must be for transgenic mice normal growth, and maintenance of normal body weight. These transgenic mice were accessed to fresh and uncontaminated drinking water. Transgenic mice were also observed and cared at least for two to three times per week. All methods involving animals were performed in accordance with the relevant guidelines and regulations.

USP10 = USP10 (Homo sapiens, UniProt Q14694); test: catalytic activity of USP10; assay type: biochemical; conditions: data not shown
USP24 = USP24 (Homo sapiens, UniProt Q9UPU5); test: in vitro enzyme assay of pure recombinant USP24 protein with biotin-tetra-ub as the substrate; assay type: biochemical; conditions: for catalytic activity of recombinant purified USP24 proteins: biotin-tetra-ub substrate, FIG. 4C / 6C
Text: FIG. 4C illustrates the result of in vitro enzyme assay of the enzyme activity of USP24 pure recombinant USP24 protein with biotin-tetra-ub as the substrate in the absence or presence of USP24 inhibitor according to several embodiments of the present invention.
FIG. 6C illustrates the result of in vitro enzyme assay of the enzyme activity of USP24 pure recombinant USP24 protein with biotin-tetra-ub as the substrate in the absence or presence of USP24 inhibitor according to several embodiments of the present invention.

EMT markers = test: EMT markers; assay type: cell-based
T24 cells [3] = test: cytotoxicity of T24 cells in the treatment of taxol with or without USP24 inhibitor; assay type: cell-based, human; conditions: FIG. 4E
Text: as §1
FIG. 6A(a) to 6A(b) illustrate the results of the cytotoxicity of T24 cells in the treatment of taxol with or without USP24 inhibitor treatment according to an embodiment of the present invention.

T24 cells [4] = test: taxol concentration inside cells evaluated by LC/MS/MS; assay type: cell-based, human
Text: FIG. 2H illustrates the images of the taxol concentration inside cells evaluated by LC/MS/MS with or without USP24 knockdown according to an embodiment of the present invention.
FIG. 4J illustrates the concentration of taxol inside cells treated with USP24 inhibitor evaluated by LC/MS/MS according to an embodiment of the present invention.
FIG. 6B illustrates the profiles of the taxol concentration in the taxol-resistant T24 cells treated with USP24-i101 (the upper panel) or DMSO (lower panel) detected by LC/MS/MS analysis according to an embodiment of the present invention.

lung cancer = lung cancer migratory ability; assay type: cell-based; conditions: data not shown
HCT116OX5 = test: cytotoxicity of HCT116OX5 cells treated with or without USP24 inhibitor; assay type: cell-based; conditions: HCT116OX5, FIG. 4F(c)
Text: as §1

[5] = body weight of SCID mice treated with taxol and USP24 inhibitor; assay type: in vivo; conditions: data not shown
Text: as §2

[6] = cytotoxicity of HCC827-GR cells treated with or without USP24 inhibitor under various concentrations of Gefitinib; conditions: human
HCC827-GR cells = test: as above

USP24, sequence (Q9UPU5 whole entry): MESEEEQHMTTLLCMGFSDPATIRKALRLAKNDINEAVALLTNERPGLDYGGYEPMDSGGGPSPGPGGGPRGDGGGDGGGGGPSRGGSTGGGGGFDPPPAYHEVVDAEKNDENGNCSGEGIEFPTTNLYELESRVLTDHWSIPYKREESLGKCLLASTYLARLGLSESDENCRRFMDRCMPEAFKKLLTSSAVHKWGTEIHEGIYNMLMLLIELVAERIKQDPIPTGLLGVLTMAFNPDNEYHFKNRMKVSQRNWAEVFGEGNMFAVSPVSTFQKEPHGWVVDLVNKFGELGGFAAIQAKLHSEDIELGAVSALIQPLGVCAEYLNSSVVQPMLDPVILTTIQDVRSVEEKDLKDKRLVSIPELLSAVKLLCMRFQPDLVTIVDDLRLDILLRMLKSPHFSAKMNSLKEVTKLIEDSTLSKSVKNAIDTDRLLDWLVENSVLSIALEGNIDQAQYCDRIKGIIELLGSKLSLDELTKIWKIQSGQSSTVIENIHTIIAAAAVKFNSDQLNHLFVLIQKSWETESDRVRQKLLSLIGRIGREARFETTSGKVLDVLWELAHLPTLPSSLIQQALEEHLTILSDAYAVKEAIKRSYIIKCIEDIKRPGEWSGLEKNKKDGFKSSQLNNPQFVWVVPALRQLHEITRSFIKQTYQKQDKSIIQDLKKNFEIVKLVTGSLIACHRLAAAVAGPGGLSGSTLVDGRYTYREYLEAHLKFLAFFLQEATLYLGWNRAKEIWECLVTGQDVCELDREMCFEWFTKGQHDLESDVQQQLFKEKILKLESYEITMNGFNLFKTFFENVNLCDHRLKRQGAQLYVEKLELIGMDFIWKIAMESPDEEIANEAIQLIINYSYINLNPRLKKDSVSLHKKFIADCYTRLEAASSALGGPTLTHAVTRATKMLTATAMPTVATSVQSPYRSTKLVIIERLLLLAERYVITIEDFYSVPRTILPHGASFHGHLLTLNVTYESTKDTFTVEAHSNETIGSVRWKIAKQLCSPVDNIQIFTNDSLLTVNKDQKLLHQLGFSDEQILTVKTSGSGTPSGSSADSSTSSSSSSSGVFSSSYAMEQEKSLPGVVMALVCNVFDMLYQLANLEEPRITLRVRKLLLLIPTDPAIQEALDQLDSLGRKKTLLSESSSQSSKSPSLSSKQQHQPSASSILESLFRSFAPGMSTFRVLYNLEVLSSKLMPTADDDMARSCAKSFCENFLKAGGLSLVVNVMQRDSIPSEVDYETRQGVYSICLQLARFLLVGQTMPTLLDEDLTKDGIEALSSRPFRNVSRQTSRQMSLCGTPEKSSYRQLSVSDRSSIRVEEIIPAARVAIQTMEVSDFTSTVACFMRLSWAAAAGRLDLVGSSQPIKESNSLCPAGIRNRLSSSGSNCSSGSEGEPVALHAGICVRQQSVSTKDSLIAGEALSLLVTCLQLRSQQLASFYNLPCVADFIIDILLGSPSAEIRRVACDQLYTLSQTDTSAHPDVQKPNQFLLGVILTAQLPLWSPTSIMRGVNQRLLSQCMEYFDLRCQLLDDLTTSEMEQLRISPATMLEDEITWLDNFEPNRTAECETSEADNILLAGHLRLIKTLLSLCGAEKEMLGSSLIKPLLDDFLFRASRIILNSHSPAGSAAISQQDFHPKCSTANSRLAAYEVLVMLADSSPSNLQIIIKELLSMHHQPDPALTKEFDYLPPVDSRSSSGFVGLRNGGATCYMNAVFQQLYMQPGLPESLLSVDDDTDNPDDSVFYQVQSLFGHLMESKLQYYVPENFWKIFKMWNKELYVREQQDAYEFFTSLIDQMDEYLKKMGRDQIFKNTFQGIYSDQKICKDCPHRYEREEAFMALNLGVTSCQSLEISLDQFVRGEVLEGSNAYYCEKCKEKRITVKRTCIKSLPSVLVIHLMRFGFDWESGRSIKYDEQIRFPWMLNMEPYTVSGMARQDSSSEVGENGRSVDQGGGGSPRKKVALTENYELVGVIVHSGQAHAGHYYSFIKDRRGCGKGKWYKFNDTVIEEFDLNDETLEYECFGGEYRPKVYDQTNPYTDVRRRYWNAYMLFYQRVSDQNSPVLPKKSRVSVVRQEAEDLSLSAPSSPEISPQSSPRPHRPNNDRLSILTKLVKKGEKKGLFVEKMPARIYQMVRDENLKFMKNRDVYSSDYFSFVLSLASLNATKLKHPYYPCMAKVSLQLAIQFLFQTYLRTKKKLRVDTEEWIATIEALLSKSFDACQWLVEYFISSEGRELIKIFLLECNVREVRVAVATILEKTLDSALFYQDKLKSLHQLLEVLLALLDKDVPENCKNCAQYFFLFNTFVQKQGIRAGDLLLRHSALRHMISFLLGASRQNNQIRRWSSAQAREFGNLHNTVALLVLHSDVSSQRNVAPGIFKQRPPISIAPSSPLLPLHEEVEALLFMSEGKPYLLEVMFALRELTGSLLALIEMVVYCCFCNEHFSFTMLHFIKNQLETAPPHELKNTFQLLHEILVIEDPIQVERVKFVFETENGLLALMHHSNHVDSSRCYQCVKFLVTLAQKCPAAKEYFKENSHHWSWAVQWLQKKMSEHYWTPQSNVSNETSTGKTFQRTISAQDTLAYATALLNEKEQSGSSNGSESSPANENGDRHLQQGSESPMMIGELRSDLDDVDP
USP7, sequence (Q93009 whole entry, species assumed): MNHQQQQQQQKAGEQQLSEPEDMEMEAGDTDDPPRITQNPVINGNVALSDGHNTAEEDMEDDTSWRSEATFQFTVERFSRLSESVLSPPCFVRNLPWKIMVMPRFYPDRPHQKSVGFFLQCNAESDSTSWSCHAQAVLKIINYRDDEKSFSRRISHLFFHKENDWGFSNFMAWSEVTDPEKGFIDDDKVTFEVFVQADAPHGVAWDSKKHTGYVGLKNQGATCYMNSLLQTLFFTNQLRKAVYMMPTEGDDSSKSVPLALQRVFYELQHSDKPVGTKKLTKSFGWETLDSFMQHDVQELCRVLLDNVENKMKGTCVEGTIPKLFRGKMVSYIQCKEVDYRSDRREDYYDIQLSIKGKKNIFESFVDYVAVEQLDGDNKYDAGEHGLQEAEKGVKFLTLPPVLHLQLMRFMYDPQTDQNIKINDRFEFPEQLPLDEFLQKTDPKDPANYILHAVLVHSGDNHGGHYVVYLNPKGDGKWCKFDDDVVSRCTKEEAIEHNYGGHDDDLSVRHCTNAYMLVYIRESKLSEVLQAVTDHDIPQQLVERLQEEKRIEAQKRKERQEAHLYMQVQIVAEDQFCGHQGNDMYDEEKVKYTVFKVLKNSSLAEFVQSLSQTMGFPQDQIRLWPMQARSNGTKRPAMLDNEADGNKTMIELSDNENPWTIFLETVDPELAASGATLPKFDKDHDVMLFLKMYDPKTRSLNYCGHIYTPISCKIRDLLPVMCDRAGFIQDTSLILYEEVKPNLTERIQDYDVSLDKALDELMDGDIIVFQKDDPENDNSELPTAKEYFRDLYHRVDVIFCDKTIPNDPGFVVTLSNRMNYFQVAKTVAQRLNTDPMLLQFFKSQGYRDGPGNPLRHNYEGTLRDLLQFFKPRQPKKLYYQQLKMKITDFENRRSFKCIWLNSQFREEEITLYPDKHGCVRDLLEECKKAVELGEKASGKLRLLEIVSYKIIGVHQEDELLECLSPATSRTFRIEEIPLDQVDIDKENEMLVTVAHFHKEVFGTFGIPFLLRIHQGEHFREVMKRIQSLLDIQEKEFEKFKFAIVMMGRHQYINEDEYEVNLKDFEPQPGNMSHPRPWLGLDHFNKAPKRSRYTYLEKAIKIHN
USP10, sequence (Q14694 whole entry): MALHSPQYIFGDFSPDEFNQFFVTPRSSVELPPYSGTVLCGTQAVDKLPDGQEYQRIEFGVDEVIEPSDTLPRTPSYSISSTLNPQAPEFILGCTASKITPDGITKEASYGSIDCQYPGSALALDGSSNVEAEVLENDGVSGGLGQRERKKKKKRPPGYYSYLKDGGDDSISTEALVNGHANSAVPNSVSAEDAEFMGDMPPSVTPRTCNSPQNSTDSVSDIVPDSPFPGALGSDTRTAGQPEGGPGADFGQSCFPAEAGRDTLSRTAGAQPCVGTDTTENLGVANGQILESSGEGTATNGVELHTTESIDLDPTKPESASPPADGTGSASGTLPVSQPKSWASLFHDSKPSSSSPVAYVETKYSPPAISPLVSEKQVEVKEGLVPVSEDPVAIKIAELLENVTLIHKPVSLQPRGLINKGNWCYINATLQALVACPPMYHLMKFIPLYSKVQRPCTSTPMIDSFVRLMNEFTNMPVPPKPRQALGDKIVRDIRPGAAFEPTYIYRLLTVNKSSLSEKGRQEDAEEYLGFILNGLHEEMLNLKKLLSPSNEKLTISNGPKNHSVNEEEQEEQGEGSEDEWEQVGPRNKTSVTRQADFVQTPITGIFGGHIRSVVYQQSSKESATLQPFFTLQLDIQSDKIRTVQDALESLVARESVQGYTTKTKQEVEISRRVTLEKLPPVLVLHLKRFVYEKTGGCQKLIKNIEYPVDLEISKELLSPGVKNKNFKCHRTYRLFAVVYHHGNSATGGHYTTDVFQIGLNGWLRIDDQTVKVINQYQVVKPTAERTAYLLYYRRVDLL

With `CCC[C@H](NC(=O)/C(C#N)=C/c1cccc(Br)n1)c1ccccc1` [WP1130, reference compound] the “inhibition of the substrates of USP24 in lung cancer” value ([1]; FIG. 4C) was “could not inhibit”.
With `CN1CCN(CCCCN2c3ccccc3Sc3ccc(C(=O)c4ccccc4)cc32)CC1` [NCI677397, (10-(4-(4-Methylpiperazin-1-yl)butyl)-10H-phenothiazin-2-yl)(phenyl)methanone oxalate] the “T24 sphere formation ability” value (T24 cells [2]) was “inhibit the T24 sphere formation ability”, the “drug resistance induced by TMZ in brain cancer” value (TMZR) was “could significantly block the drug resistance” and the “level of P-gp” value (P-gp) was “could decrease the level of P-gp”. The “catalytic activity of USP7” value (USP7) was “could not block”, the “catalytic activity of USP9x” value (USP9x) was “could not block” and the “levels of Bax, BRD7” value [1] was “could decrease the levels”. For the same molecule, the “level of p300” value [1] was “could decrease the levels”, the “drug resistance induced by Camptothecin in NPC” value (Hone-1 CPT-R) was “could significantly block the drug resistance” and the “cytotoxicity of taxol in the inhibition of cancer size and weight” value (T24) was “increased the cytotoxicity of taxol in the inhibition of cancer size and weight”. For the same molecule, the “catalytic activity of USP10” value (USP10) was “could not block”, the “catalytic activity of recombinant purified USP24 proteins” value (USP24) was “inhibited the catalytic activity” and the “specificity in blocking USP24 enzyme activity” value (USP24; versus USP7, USP9x, USP10) was “higher specificity”. For the same molecule, the EMT markers (EMT markers) was “inhibited”, the “drug resistance induced by taxol in lung cancer” value (T24 cells [3]) was “could significantly block the drug resistance” and the “concentration of taxol inside cells, with USP24 inhibitor” value (T24 cells [4]; under 1000 nM taxol treatment) was 321.36 nM. The lung cancer migration (lung cancer) was “could inhibit lung cancer migration”, the “drug resistance induced by oxaliplatin in colorectal cancer” value (HCT116OX5) was “could significantly block the drug resistance” and the body weight [5] was “did not affect the body weight”.
For `CCCCNS(=O)(=O)c1ccc(NC(=O)c2ccc3ccccc3c2O)c([N+](=O)[O-])c1` [NCI158067], the “catalytic activity of USP7” value (USP7) was “could inhibit”, the “levels of Bax, BRD7” value [1] was “could decrease the levels” and the “level of p300” value [1] was “could decrease the levels”. The “catalytic activity of USP10” value (USP10) was “could inhibit”, the “catalytic activity of recombinant purified USP24 proteins” value (USP24) was “inhibited the catalytic activity” and the lung cancer migration (lung cancer) was “could inhibit lung cancer migration”.
For `CN1CCN(CCN2c3ccccc3Sc3ccc(C(=O)c4ccccc4)cc32)CC1` [USP24-i101, (10-(2-(4-Methylpiperazin-1-yl)ethyl)-10H-phenothiazin-2-yl)(phenyl)methanone], the viability at 1 μg/mL [6] was 94%, the viability at 5 μg/mL [6] was 80.5% and the IC50 (HCC827-GR cells; read-out: IC50 of gefitinib in HCC827-GR with USP24-i101, 1 μg/mL of USP24-i101) was 6.3 nM. The IC50 (HCC827-GR cells; read-out: IC50 of gefitinib in HCC827-GR with USP24-i101, 5 μg/mL of USP24-i101) was 3.1 nM and the “catalytic activity of recombinant purified USP24 proteins” value (USP24) was “had comparably catalytic activity to NCI699397”.
In the case of `CC(=O)O[C@H]1C(=O)[C@@]2(C)[C@H]([C@H](OC(=O)c3ccccc3)[C@]3(O)C[C@H](OC(=O)[C@H](O)[C@@H](NC(=O)c4ccccc4)c4ccccc4)C(C)=C1C3(C)C)[C@]1(OC(C)=O)CO[C@@H]1C[C@@H]2O` [taxol], the “accumulation of taxol inside the drug resistant cells, T24” value (T24 cells [4]; loss of USP24 (knockdown)) is reported as 272.7 nM/1000 nM and the “accumulation of taxol inside the drug resistant cells, T24” value (T24 cells [4]; without USP24 knockdown) is reported as 110.8 nM/1000 nM.
